Source: ChEMBL document CHEMBL1146150, “Synthesis and antibacterial activity of novel neamine derivatives” (2006)
≈ marks a conversion by molar mass, not a printed value.

Experiments:
Format in all cases: functional
[1] = tested on: Pseudomonas aeruginosa; test: Antibacterial activity against Pseudomonas aeruginosa GN4925 expressing AAC(6')-Ib by twofold agar dilution method
[2] = tested on: Staphylococcus aureus; test: Antibacterial activity against gentamycin and arbekacin-resistant Staphylococcus aureus MF490 expressing AAD(4'), AAC(6')-APH(2'') enzymes by twofold agar dilution method
[3] = tested on: Staphylococcus aureus; test: Antibacterial activity against Staphylococcus aureus RN4220/pCR1948 expressing AAC(6')-APH(2'') enzyme by twofold agar dilution method
[4] = tested on: Escherichia coli; test: Antibacterial activity against Escherichia coli NIH JC2 by twofold agar dilution method
[5] = tested on: Staphylococcus aureus; test: Antibacterial activity against Staphylococcus aureus RN4220/pMS520 expressing AAD(4')-I enzyme by twofold agar dilution method
[6] = tested on: Staphylococcus aureus; test: Antibacterial activity against gentamycin and arbekacin-resistant Staphylococcus aureus RN4220/pMF490 expressing AAC(6')-APH(2'') enzyme by twofold agar dilution method
[7] = tested on: Staphylococcus aureus; test: Antibacterial activity against Staphylococcus aureus RN4220 by twofold agar dilution method
[8] = tested on: Pseudomonas aeruginosa; test: Antibacterial activity against Pseudomonas aeruginosa PAO1 by twofold agar dilution method
[9] = tested on: Pseudomonas aeruginosa; test: Antibacterial activity against Pseudomonas aeruginosa GN3054 expressing AAC(3)-I by twofold agar dilution method

Row | SMILES | MIC [1] [µg/mL] | MIC [2] [µg/mL] | MIC [3] [µg/mL] | MIC [4] [µg/mL] | MIC [5] [µg/mL] | MIC [6] [µg/mL] | MIC [7] [µg/mL] | MIC [8] [µg/mL] | MIC [9] [µg/mL]
1 | NCCCNC(=O)O[C@@H]1[C@@H](O)[C@H](O[C@H]2O[C@H](CN)CC[C@H]2N)[C@@H](N)C[C@H]1NC(=O)[C@@H](O)CCN | 128 (≈ 260 µM) | 64 (≈ 130 µM) | 16 (≈ 32.5 µM) | 64 (≈ 130 µM) | 16 (≈ 32.5 µM) | 16 (≈ 32.5 µM) | 16 (≈ 32.5 µM) | 32 (≈ 65.1 µM) | 128 (≈ 260 µM)
2 | NCCNC(=O)O[C@@H]1[C@@H](O)[C@H](O[C@H]2O[C@H](CN)CC[C@H]2N)[C@@H](N)C[C@H]1NC(=O)[C@@H](O)CCN | > 32 | 32 (≈ 67 µM) | 8 (≈ 16.8 µM) | 32 (≈ 67 µM) | 8 (≈ 16.8 µM) | 16 (≈ 33.5 µM) | 8 (≈ 16.8 µM) | > 32 | > 32
3 | NCCNC(=O)O[C@@H]1[C@@H](O)[C@H](NC(=O)[C@@H](O)CCN)C[C@H](N)[C@H]1O[C@H]1O[C@H](CN)CC[C@H]1N | 8 (≈ 16.8 µM) | 8 (≈ 16.8 µM) | 2 (≈ 4.19 µM) | 8 (≈ 16.8 µM) | 2 (≈ 4.19 µM) | 2 (≈ 4.19 µM) | 2 (≈ 4.19 µM) | 8 (≈ 16.8 µM) | 16 (≈ 33.5 µM)
4 | NCCCNC(=O)O[C@@H]1[C@@H](O)[C@H](NC(=O)[C@@H](O)CCN)C[C@H](N)[C@H]1O[C@H]1O[C@H](CN)CC[C@H]1N | 128 (≈ 260 µM) | 128 (≈ 260 µM) | 16 (≈ 32.5 µM) | 32 (≈ 65.1 µM) | 16 (≈ 32.5 µM) | 32 (≈ 65.1 µM) | 16 (≈ 32.5 µM) | 32 (≈ 65.1 µM) | 64 (≈ 130 µM)
5 | NCC[C@H](O)C(=O)N[C@@H]1C[C@H](N)[C@@H](O[C@H]2O[C@H](CN)CC[C@H]2N)[C@H](O)[C@H]1O | 64 (≈ 163 µM) | 8 (≈ 20.4 µM) | 2 (≈ 5.11 µM) | 8 (≈ 20.4 µM) | 4 (≈ 10.2 µM) | 4 (≈ 10.2 µM) | 4 (≈ 10.2 µM) | 8 (≈ 20.4 µM) | 16 (≈ 40.9 µM)
6 | NCC[C@H](O)C(=O)N[C@@H]1C[C@H](N)[C@@H](O[C@H]2O[C@H](CN)CC[C@H]2N)[C@H](O)[C@H]1O[C@H]1O[C@H](CO)[C@@H](O)[C@H](N)[C@H]1O [ARBEKACIN] | 4 (≈ 7.24 µM) | 64 (≈ 116 µM) | 1 (≈ 1.81 µM) | 1 (≈ 1.81 µM) | 0.5 (≈ 0.905 µM) | 8 (≈ 14.5 µM) | 0.5 (≈ 0.905 µM) | 4 (≈ 7.24 µM) | 8 (≈ 14.5 µM)
7 | CN[C@@H]1[C@@H](O)[C@@H](O[C@@H]2[C@@H](O)[C@H](O[C@H]3O[C@H]([C@@H](C)NC)CC[C@H]3N)[C@@H](N)C[C@H]2N)OC[C@]1(C)O [GENTAMICIN C1] | 128 (≈ 268 µM) | > 128 | 64 (≈ 134 µM) | 0.5 (≈ 1.05 µM) | 0.25 (≈ 0.523 µM) | > 128 | 0.25 (≈ 0.523 µM) | 4 (≈ 8.38 µM) | 128 (≈ 268 µM)
8 | CN[C@@H]1[C@@H](O)[C@@H](O[C@@H]2[C@@H](O)[C@H](O[C@H]3O[C@H](C(C)N)CC[C@H]3N)[C@@H](N)C[C@H]2N)OC[C@]1(C)O (stereo not given in full) [GENTAMICIN C2] | 128 (≈ 276 µM) | > 128 | 64 (≈ 138 µM) | 0.5 (≈ 1.08 µM) | 0.25 (≈ 0.539 µM) | > 128 | 0.25 (≈ 0.539 µM) | 4 (≈ 8.63 µM) | 128 (≈ 276 µM)
9 | NC[C@@H]1CC[C@@H](N)[C@@H](O[C@H]2[C@H](O)[C@@H](O)[C@H](N)C[C@@H]2N)O1 [GENTAMINE C1A] | > 128 | > 128 | > 128 | 32 (≈ 110 µM) | 16 (≈ 55.1 µM) |  | 16 (≈ 55.1 µM) | 32 (≈ 110 µM) | 64 (≈ 220 µM)
